According to patent US20230411006A1, “METHOD FOR ASSESSING THE AREA UNDER THE CURVE OF AN IMMUNOSUPRESSANT AND ASSOCIATED METHOD AND SYSTEMS” (INSTITUT NATIONAL DE LA SANTE ET DE LA RECHERCHE MEDICALE, priority 2020, published 2023):
Read-outs that look alike come from different tables or passages of the source. Blank lines part the entries; values can stand above or below the molecule they belong to.

Legend:
[1] = Tacrolimus concentrations and interdose AUC in ISBA requests of renal transplant patients; conditions: human, in vivo, oral; for concentration at 3 h: read-out: Concentration C3 at 3 h; for concentration at 1 h: read-out: Concentration C1 at 1 h; for C0: read-out: Through level C0
Method: Tacrolimus requests from ISBA website were extracted and cleaned using the tidyverse framework. Patient with a renal transplantation and tacrolimus concentrations measured using HPLC methods were selected. The requests including at least 3 sample times at 0 minutes (min), 60 min and 180 min after dose intake were selected with a range of selection of 30 min to 100 min for the 60 min and 140 min to 220 min for the 180 min (the 0, 60, 180 min is the optimal sampling schedule for Prograf® and Advagraf® while the optimal sampling times requested for Envarsus® is 0, 8 and 12 h after dose intake and this later formulation was not included in the analysis).
The dataset was split into two datasets according to the tacrolimus interdose and two independent prediction functions were developed, one for twice a day formulations (TAD; Prograf®) and one for once a day formulations (OAD; Advagraf®).
The present study used supervised learning to predict the inter-dose AUC for which the reference value have been obtained by MAP-BE in the ISBA website based on 3 concentrations.
The tacrolimus concentrations were binned into 3 theoretical time classes (concentrations at trough (C0 sampled at t=0 min), at 1 h (C1 sampled between 30 and 100 min) and at 3 h (C3 sampled between 140 and 220 min), leading to 3 columns per patient.

[2] = Mycophenolic acid interdose AUC0-12 h in ISBA requests (MPA plasma levels after MMF dose); format: in vivo, human; conditions: for AUC: human, plasma, oral, Median, read-out: Interdose AUC0_12 h
Method: For patients and data, the dataset was sequentially refined by selecting the requests where MPA plasma levels were measured using HPLC, including at least 3 times of sampling approximately 20 min (10 to 30 min, C20), 60 min (30 to 100 min, C1) and 180 min (140 to 220 min, C3) after dose intake. Actually, the 20, 60, 180 min is the optimal sampling schedule for MMF. A filter was applied to select the requests with an interdose of 12 h. The other predictors available were the morning dose of MMF, the time elapsed between transplantation and MPA plasma sampling, the type of transplant, the associated immunosuppressant and patient age.

- concentration at 3 h ([1]; Maximum, OAD, Test (n = 394)): 17.9 ng/mL
- concentration at 3 h ([1]; Maximum, OAD, Train (n = 1184)): 18.4 ng/mL
- concentration at 3 h ([1]; Maximum, TAD, Test (n = 1236)): 16.9 ng/mL
- concentration at 3 h ([1]; Maximum, TAD, Train (n = 3708)): 16.6 ng/mL
- concentration at 1 h ([1]; Maxmum, OAD, Test (n = 394)): 17.1 ng/mL
- concentration at 1 h ([1]; Maxmum, OAD, Train (n = 1184)): 18.4 ng/mL
- concentration at 1 h ([1]; Maxmum, TAD, Test (n = 1236)): 21.7 ng/mL
- concentration at 1 h ([1]; Maxmum, TAD, Train (n = 3708)): 21.4 ng/mL
- concentration at 1 h ([1]; Median, OAD, Test (n = 394)): 12.3 ng/mL
- concentration at 3 h ([1]; Median, OAD, Test (n = 394)): 13 ng/mL
- AUC ([1]; Median, OAD, Test (n = 394), read-out: Interdose AuC): 222 ng·h/mL
- C0 ([1]; Median, OAD, Test (n = 394)): 12.3 ng/mL
- concentration at 1 h ([1]; Median, OAD, Train (n = 1184)): 12.6 ng/mL
- concentration at 3 h ([1]; Median, OAD, Train (n = 1184)): 13.9 ng/mL
- AUC ([1]; Median, OAD, Train (n = 1184), read-out: Interdose AuC): 236 ng·h/mL
- C0 ([1]; Median, OAD, Train (n = 1184)): 12.6 ng/mL
- concentration at 1 h ([1]; Median, TAD, Test (n = 1236)): 15.4 ng/mL
- concentration at 3 h ([1]; Median, TAD, Test (n = 1236)): 12.8 ng/mL
- AUC ([1]; Median, TAD, Test (n = 1236), read-out: Interdose AuC): 130 ng·h/mL
- C0 ([1]; Median, TAD, Test (n = 1236)): 15.4 ng/mL
- concentration at 1 h ([1]; Median, TAD, Train (n = 3708)): 14.7 ng/mL
- concentration at 3 h ([1]; Median, TAD, Train (n = 3708)): 12.4 ng/mL
- AUC ([1]; Median, TAD, Train (n = 3708), read-out: Interdose AuC): 128 ng·h/mL
- C0 ([1]; Median, TAD, Train (n = 3708)): 14.7 ng/mL
- concentration at 1 h ([1]; Minimum, OAD, Test (n = 394)): 8.6 ng/mL
- concentration at 3 h ([1]; Minimum, OAD, Test (n = 394)): 9.51 ng/mL
- concentration at 1 h ([1]; Minimum, OAD, Train (n = 1184)): 9 ng/mL
- concentration at 3 h ([1]; Minimum, OAD, Train (n = 1184)): 9.8 ng/mL
- concentration at 1 h ([1]; Minimum, TAD, Test (n = 1236)): 10.5 ng/mL
- concentration at 3 h ([1]; Minimum, TAD, Test (n = 1236)): 9.6 ng/mL
- concentration at 1 h ([1]; Minimum, TAD, Train (n = 3708)): 10.2 ng/mL
- concentration at 3 h ([1]; Minimum, TAD, Train (n = 3708)): 9.3 ng/mL
- AUC ([1]; OAD, cleaned ISBA datasets, read-out: interdose AUCs range): 44 to 698 ng·h/mL
- AUC ([1]; TAD, cleaned ISBA datasets, read-out: interdose AUCs range): 22 to 380 ng·h/mL
SMILES: C=CC[C@@H]1/C=C(\C)C[C@H](C)C[C@H](OC)[C@H]2O[C@@](O)(C(=O)C(=O)N3CCCC[C@H]3C(=O)O[C@H](/C(C)=C/[C@@H]3CC[C@@H](O)[C@H](OC)C3)[C@H](C)[C@@H](O)CC1=O)[C@H](C)C[C@@H]2OC [tacrolimus]

- Interdose AUC0_12 h ([2]; Maximum, TEST (N = 3219)): 163.62 mg·h/L
- Interdose AUC0_12 h ([2]; Maximum, TRAIN (N = 9658)): 181.39 mg·h/L
- Interdose AUC0_12 h ([2]; Minimum, TEST (N = 3219)): 3.19 mg·h/L
- Interdose AUC0_12 h ([2]; Minimum, TRAIN (N = 9658)): 1.12 mg·h/L
- AUC ([2]; TEST (N = 3219)): 39200 ng·h/mL
- AUC ([2]; TRAIN (N = 9658)): 39300 ng·h/mL
SMILES: COc1c(C)c2c(c(O)c1C/C=C(\C)CCC(=O)O)C(=O)OC2 [mycophenolic acid]
